Data published in PubChem BioAssay (NCI).
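Compound exposure: 48 hours, 5 concentrations, 96-well plates. TGI is the concentration that stops growth completely.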

Legend:
Test in all cases: NCI anticancer screen, dose series, 48 h
A549 NSCLC = system: A549 NSCLC
ACHN renal = system: ACHN renal
BT-549 breast = system: BT-549 breast
CAKI-1 renal = system: CAKI-1 renal
CCRF-CEM leukemia = system: CCRF-CEM leukemia
COLO 205 colon = system: COLO 205 colon
DU-145 prostate = system: DU-145 prostate
EKVX NSCLC = system: EKVX NSCLC
HCC-2998 colon = system: HCC-2998 colon
HCT-116 colon = system: HCT-116 colon
HCT-15 colon = system: HCT-15 colon
HL-60(TB) leukemia = system: HL-60(TB) leukemia
HOP-62 NSCLC = system: HOP-62 NSCLC
K-562 leukemia = system: K-562 leukemia
KM12 colon = system: KM12 colon
LOX IMVI melanoma = system: LOX IMVI melanoma
M14 melanoma = system: M14 melanoma
MALME-3M melanoma = system: MALME-3M melanoma
MCF7 breast = system: MCF7 breast
MDA-MB-231 breast = system: MDA-MB-231 breast
MDA-MB-435 = system: MDA-MB-435
MDA-N = system: MDA-N
MOLT-4 leukemia = system: MOLT-4 leukemia
NCI-H23 lung = system: NCI-H23 lung
NCI-H460 lung = system: NCI-H460 lung
NCI/ADR-RES ovarian = system: NCI/ADR-RES ovarian
OVCAR-3 ovarian = system: OVCAR-3 ovarian
OVCAR-4 ovarian = system: OVCAR-4 ovarian
OVCAR-5 ovarian = system: OVCAR-5 ovarian
OVCAR-8 ovarian = system: OVCAR-8 ovarian
PC-3 prostate = system: PC-3 prostate
RPMI-8226 leukemia = system: RPMI-8226 leukemia
SF-295 CNS = system: SF-295 CNS
SK-MEL-2 melanoma = system: SK-MEL-2 melanoma
SK-MEL-28 melanoma = system: SK-MEL-28 melanoma
SK-MEL-5 melanoma = system: SK-MEL-5 melanoma
SN12C renal = system: SN12C renal
SNB-19 CNS = system: SNB-19 CNS
SR leukemia = system: SR leukemia
TK-10 renal = system: TK-10 renal
U251 CNS = system: U251 CNS
UACC-257 melanoma = system: UACC-257 melanoma
UO-31 renal = system: UO-31 renal
786-0 renal = system: 786-0 renal
A498 renal = system: A498 renal
HOP-92 NSCLC = system: HOP-92 NSCLC
HT29 colon = system: HT29 colon
NCI-H226 lung = system: NCI-H226 lung
NCI-H522 lung = system: NCI-H522 lung
RXF 393 renal = system: RXF 393 renal
SF-268 CNS = system: SF-268 CNS
SK-OV-3 ovarian = system: SK-OV-3 ovarian
SW-620 colon = system: SW-620 colon
UACC-62 melanoma = system: UACC-62 melanoma

CC(C(=O)O)c1ccc(-n2nnc3c(=O)[nH][nH]c(=O)c32)cc1 (configuration not stated)
TGI (A549 NSCLC): > 100 µM | TGI (ACHN renal): > 100 µM | TGI (BT-549 breast): > 100 µM | TGI (CAKI-1 renal): > 100 µM | TGI (CCRF-CEM leukemia): > 100 µM | TGI (COLO 205 colon): > 100 µM | TGI (DU-145 prostate): > 100 µM | TGI (EKVX NSCLC): > 100 µM | TGI (HCC-2998 colon): > 100 µM | TGI (HCT-116 colon): > 100 µM | TGI (HCT-15 colon): > 100 µM | TGI (HL-60(TB) leukemia): > 100 µM | TGI (HOP-62 NSCLC): > 100 µM | TGI (K-562 leukemia): > 100 µM | TGI (KM12 colon): > 100 µM | TGI (LOX IMVI melanoma): > 100 µM | TGI (M14 melanoma): > 100 µM | TGI (MALME-3M melanoma): > 100 µM | TGI (MCF7 breast): > 100 µM | TGI (MDA-MB-231 breast): > 100 µM | TGI (MDA-MB-435): > 100 µM | TGI (MDA-N): > 100 µM | TGI (MOLT-4 leukemia): > 100 µM | TGI (NCI-H23 lung): > 100 µM | TGI (NCI-H460 lung): > 100 µM | TGI (NCI/ADR-RES ovarian): > 100 µM | TGI (OVCAR-3 ovarian): > 100 µM | TGI (OVCAR-4 ovarian): > 100 µM | TGI (OVCAR-5 ovarian): > 100 µM | TGI (OVCAR-8 ovarian): > 100 µM | TGI (PC-3 prostate): > 100 µM | TGI (RPMI-8226 leukemia): > 100 µM | TGI (SF-295 CNS): > 100 µM | TGI (SK-MEL-2 melanoma): > 100 µM | TGI (SK-MEL-28 melanoma): > 100 µM | TGI (SK-MEL-5 melanoma): > 100 µM | TGI (SN12C renal): > 100 µM | TGI (SNB-19 CNS): > 100 µM | TGI (SR leukemia): > 100 µM | TGI (TK-10 renal): > 100 µM | TGI (U251 CNS): > 100 µM | TGI (UACC-257 melanoma): > 100 µM | TGI (UO-31 renal): > 100 µM

COc1cc2c[n+](C)c3c4cc(OC)c(OC)cc4c(OCc4ccccc4)cc3c2cc1OC
TGI (786-0 renal): 12.3 µM | TGI (A498 renal): > 86.7 µM | TGI (A549 NSCLC): > 100 µM | TGI (ACHN renal): > 100 µM | TGI (BT-549 breast): 1.71 µM | TGI (CAKI-1 renal): > 90.7 µM | TGI (COLO 205 colon): 1.96 µM | TGI (DU-145 prostate): 9.81 µM | TGI (EKVX NSCLC): > 100 µM | TGI (HCC-2998 colon): 41.3 µM | TGI (HCT-15 colon): > 100 µM | TGI (HOP-62 NSCLC): 10.5 µM | TGI (HOP-92 NSCLC): 3.24 µM | TGI (HT29 colon): 7.29 µM | TGI (K-562 leukemia): > 100 µM | TGI (M14 melanoma): 4.2 µM | TGI (MALME-3M melanoma): 3.31 µM | TGI (MCF7 breast): 5.05 µM | TGI (MDA-MB-231 breast): 6.69 µM | TGI (MDA-MB-435): 2.34 µM | TGI (MDA-N): 2.53 µM | TGI (MOLT-4 leukemia): > 80.1 µM | TGI (NCI-H226 lung): 3.94 µM | TGI (NCI-H23 lung): 4.36 µM | TGI (NCI-H460 lung): > 100 µM | TGI (NCI-H522 lung): 1.5 µM | TGI (NCI/ADR-RES ovarian): > 100 µM | TGI (OVCAR-3 ovarian): 3.97 µM | TGI (OVCAR-4 ovarian): > 27.5 µM | TGI (OVCAR-5 ovarian): > 100 µM | TGI (OVCAR-8 ovarian): 5.02 µM | TGI (PC-3 prostate): 3.41 µM | TGI (RPMI-8226 leukemia): 77.2 µM | TGI (RXF 393 renal): 6.19 µM | TGI (SF-268 CNS): 1.97 µM | TGI (SF-295 CNS): 96.9 µM | TGI (SK-MEL-2 melanoma): 3.37 µM | TGI (SK-MEL-28 melanoma): 2.55 µM | TGI (SK-MEL-5 melanoma): 2.69 µM | TGI (SK-OV-3 ovarian): > 100 µM | TGI (SN12C renal): > 100 µM | TGI (SNB-19 CNS): 1.92 µM | TGI (SR leukemia): > 100 µM | TGI (SW-620 colon): > 100 µM | TGI (TK-10 renal): > 100 µM | TGI (U251 CNS): 1.08 µM | TGI (UACC-257 melanoma): 3.38 µM | TGI (UACC-62 melanoma): 1.8 µM | TGI (UO-31 renal): > 100 µM
